Results published in PubChem BioAssay AID248 (DTP/NCI, 2004).
“And” between values parts separate entries of the source, which are not always exact repeats. Equal values may be shown once. Toxic doses and inconclusive results are not listed. Rule as the data show it: active = T/C of 150% or more; inactive = T/C below 125%.

Test system: L1210 leukemia ip in BDF1 mice, survival T/C
Test: NCI In Vivo Anticancer Drug Screen. Data for tumor model L1210 Leukemia (intraperitoneal) in B6D2F1 (BDF1) mice
Details: endpoint: mean survival time, higher = longer survival
Outline: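 Each compound was tested against a transplantable tumor grown in mice. The endpoint was survival, with treated animals benchmarked against vehicle controls as a simple ratio.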

[1] = dose: 50.0 mg/kg/injection, schedule: Q04DX002 (ip), vehicle: saline with Tween-80
[2] = dose: 100.0 mg/kg/injection, schedule: Q01DX009 (ip), vehicle: saline with Tween-80
[3] = dose: 100.0 mg/kg/injection, schedule: Q04DX002 (ip), vehicle: saline with Tween-80
[4] = dose: 100.0 mg/kg/injection, schedule: Q01DX009 (ip), vehicle: Klucel (hydroxypropylcellulose) (HPC)
[5] = dose: 100.0 mg/kg/injection, schedule: Q04DX003 (ip), vehicle: Klucel (hydroxypropylcellulose) (HPC)
[6] = dose: 200.0 mg/kg/injection, schedule: Q01DX009 (ip), vehicle: Klucel (hydroxypropylcellulose) (HPC)
[7] = dose: 200.0 mg/kg/injection, schedule: Q04DX003 (ip), vehicle: Klucel (hydroxypropylcellulose) (HPC)
[8] = dose: 400.0 mg/kg/injection, schedule: Q01DX009 (ip), vehicle: Klucel (hydroxypropylcellulose) (HPC)
[9] = dose: 400.0 mg/kg/injection, schedule: Q04DX003 (ip), vehicle: Klucel (hydroxypropylcellulose) (HPC)
[10] = dose: 100.0 mg/kg/injection, schedule: Q01DX001 (ip), vehicle: saline
[11] = dose: 200.0 mg/kg/injection, schedule: Q01DX001 (ip), vehicle: saline
[12] = dose: 400.0 mg/kg/injection, schedule: Q01DX001 (ip), vehicle: saline
[13] = dose: 50.0 mg/kg/injection, schedule: Q01DX001 (ip), vehicle: carboxymethylcellulose (CMC)
[14] = dose: 100.0 mg/kg/injection, schedule: Q01DX001 (ip), vehicle: carboxymethylcellulose (CMC)
[15] = dose: 200.0 mg/kg/injection, schedule: Q01DX001 (ip), vehicle: carboxymethylcellulose (CMC)
[16] = dose: 400.0 mg/kg/injection, schedule: Q01DX001 (ip), vehicle: carboxymethylcellulose (CMC)
[17] = dose: 200.0 mg/kg/injection, schedule: Q01DX009 (ip), vehicle: saline with Tween-80
[18] = dose: 400.0 mg/kg/injection, schedule: Q01DX009 (ip), vehicle: saline with Tween-80

Measured: T/C

Cc1ccc2ccccc2[n+]1[O-]
inactive: dose: 25.0 mg/kg/injection, schedule: Q01DX009 (ip), vehicle: saline with Tween-80 100 % of control | dose: 25.0 mg/kg/injection, schedule: Q04DX002 (ip), vehicle: saline with Tween-80 93 % of control | dose: 50.0 mg/kg/injection, schedule: Q01DX009 (ip), vehicle: saline with Tween-80 96 % of control | [1] 104 % of control | dose: 75.0 mg/kg/injection, schedule: Q01DX001 (ip), vehicle: carboxymethylcellulose (CMC) 94 % of control | [2] 96 % of control | [3] 96 % of control | dose: 150.0 mg/kg/injection, schedule: Q01DX001 (ip), vehicle: carboxymethylcellulose (CMC) 96 % of control

N#Cc1cn(C2OC(CO)C(O)C2O)c2ncn3ccnc3c12 (stereo not given)
inactive: dose: 100.0 mg/kg/injection, schedule: Q04DX003 (ip), vehicle: water 116 % of control | dose: 200.0 mg/kg/injection, schedule: Q04DX003 (ip), vehicle: water 113 % of control and 117 % of control | dose: 300.0 mg/kg/injection, schedule: Q04DX003 (ip), vehicle: water 121 % of control | dose: 500.0 mg/kg/injection, schedule: Q04DX003 (ip), vehicle: water 107 % of control

O=[N+]([O-])c1ccc(/C=C\c2ccccc2)cc1
inactive: [4] 95 % of control | [5] 98 % of control | [6] 97 % of control | [7] 98 % of control | [8] 96 % of control | [9] 96 % of control

CC(=O)OC1c2ccccc2C(=O)C1(OC(C)=O)c1ccccc1 (stereo not given)
inactive: [4] 101 % of control | [5] 97 % of control | [6] 107 % of control | [7] 100 % of control | [8] 101 % of control | [9] 102 % of control

CCCCCCCC(O)CCCC (stereo not given)
inactive: [4] 100 % of control | [5] 95 % of control | [6] 104 % of control | [7] 103 % of control | [8] 104 % of control | [9] 98 % of control

C=C=CC(C)(C)C
inactive: [10] 96 % of control | [11] 96 % of control | dose: 200.0 mg/kg/injection, schedule: Q04DX003 (ip), vehicle: saline 100 % of control | [12] 96 % of control | dose: 400.0 mg/kg/injection, schedule: Q04DX003 (ip), vehicle: saline 100 % of control

O=S(=O)(c1ccccc1)C1CC1(c1ccccc1)c1ccccc1 (stereo not given)
inactive: [10] 92 % of control | [11] 93 % of control | [12] 90 % of control

CCCCCCSC1=C(SCCCCCC)C(=O)c2[nH]cnc2C1=O
inactive: [13] 100 % of control | [14] 95 % of control | [15] 90 % of control | [16] 90 % of control

S=c1c2ccccc2nc2n1CCS2
inactive: [17] 92 % of control | [18] 87 % of control

CSc1ccc(NC(=O)Oc2cc(C)c(Cl)cc2C(C)C)cc1
inactive: [4] 94 % of control | [6] 96 % of control | [8] 89 % of control

O=CO.[Pb]
inactive: [10] 90 % of control | [11] 92 % of control | [12] 98 % of control

O=C1OC(c2ccc(Cl)cc2)=N/C1=C\c1ccc(Cl)cc1
inactive: [2] 91 % of control | [17] 94 % of control | [18] 91 % of control

C[C@]12CC[C@H]3[C@@H](CC[C@]4(O)C[C@@H](O)CC[C@]34C=O)[C@@]1(O)CC[C@@H]2C1=CC(=O)OC1
inactive: dose: 12.5 mg/kg/injection, schedule: Q01DX009 (ip), vehicle: Klucel (hydroxypropylcellulose) (HPC) 102 % of control | dose: 25.0 mg/kg/injection, schedule: Q01DX009 (ip), vehicle: Klucel (hydroxypropylcellulose) (HPC) 104 % of control | [13] 98 % of control | dose: 50.0 mg/kg/injection, schedule: Q01DX009 (ip), vehicle: Klucel (hydroxypropylcellulose) (HPC) 102 % of control | dose: 50.0 mg/kg/injection, schedule: Q01DX009 (ip), vehicle: carboxymethylcellulose (CMC) 103 % of control | dose: 75.0 mg/kg/injection, schedule: Q04DX003 (ip), vehicle: Klucel (hydroxypropylcellulose) (HPC) 102 % of control | [14] 96 % of control | [4] 109 % of control | dose: 100.0 mg/kg/injection, schedule: Q01DX009 (ip), vehicle: carboxymethylcellulose (CMC) 108 % of control | dose: 150.0 mg/kg/injection, schedule: Q04DX003 (ip), vehicle: Klucel (hydroxypropylcellulose) (HPC) 98 % of control | [15] 93 % of control | [6] 112 % of control | dose: 300.0 mg/kg/injection, schedule: Q04DX003 (ip), vehicle: Klucel (hydroxypropylcellulose) (HPC) 101 % of control

COc1ccccc1/C=N\NC(=O)C1CC1
inactive: dose: 15.0 mg/kg/injection, schedule: Q01DX Z (ip), vehicle: carboxymethylcellulose (CMC) 102 % of control | dose: 30.0 mg/kg/injection, schedule: Q01DX Z (ip), vehicle: carboxymethylcellulose (CMC) 97 % of control | dose: 60.0 mg/kg/injection, schedule: Q01DX Z (ip), vehicle: carboxymethylcellulose (CMC) 97 % of control and 101 % of control | dose: 120.0 mg/kg/injection, schedule: Q01DX Z (ip), vehicle: carboxymethylcellulose (CMC) 101 % of control and 102 % of control | dose: 240.0 mg/kg/injection, schedule: Q01DX Z (ip), vehicle: carboxymethylcellulose (CMC) 98 % of control | dose: 480.0 mg/kg/injection, schedule: Q01DX Z (ip), vehicle: carboxymethylcellulose (CMC) 101 % of control | dose: 480.0 mg/kg/injection, schedule: Q01DX Z (oral), vehicle: carboxymethylcellulose (CMC) 106 % of control | dose: 960.0 mg/kg/injection, schedule: Q01DX Z (oral), vehicle: carboxymethylcellulose (CMC) 93 % of control

CN(N=O)C(=O)N(C)C(=O)N(C)N=O
inactive: dose: 6.25 mg/kg/injection, schedule: Q01DX Z (ip), vehicle: carboxymethylcellulose (CMC) 104 % of control | dose: 12.5 mg/kg/injection, schedule: Q01DX Z (ip), vehicle: carboxymethylcellulose (CMC) 112 % of control | dose: 25.0 mg/kg/injection, schedule: Q01DX Z (ip), vehicle: carboxymethylcellulose (CMC) 108 % of control | dose: 50.0 mg/kg/injection, schedule: Q01DX Z (ip), vehicle: carboxymethylcellulose (CMC) 92 % of control

CC(C)(C)C(=O)[CH-]C(=O)C(C)(C)C.CC(C)(C)C(=O)[CH-]C(=O)C(C)(C)C.CC(C)(C)C(=O)[CH-]C(=O)C(C)(C)C.[Er+3]
inactive: [1] 90 % of control | [3] 90 % of control | dose: 200.0 mg/kg/injection, schedule: Q04DX002 (ip), vehicle: saline with Tween-80 90 % of control | dose: 400.0 mg/kg/injection, schedule: Q04DX002 (ip), vehicle: saline with Tween-80 90 % of control

CC(=O)Nc1ccc(OCc2ccccc2)cc1[N+](=O)[O-]
inactive: dose: 50.0 mg/kg/injection, schedule: Q01DX001 (ip), vehicle: saline 95 % of control | [10] 101 % of control | [11] 98 % of control | [12] 93 % of control

CCOC(=O)Nc1cc(N)c([N+](=O)[O-])c(NC(c2ccccc2)c2ccccc2)n1
inactive: [14] 95 % of control | [15] 87 % of control | [16] 92 % of control

OC1c2ccccc2-c2ccc(N(Cc3ccccc3)Cc3ccccc3)cc21 (stereo not given)
inactive: dose: 200.0 mg/kg/injection, schedule: Q04DX003 (ip), vehicle: saline with Tween-80 87 % of control
